What was measured:
[1] = Hydrolysis kinetic catalysis constant was measured for the hydrolysis catalyzed by antibody 15C5
[2] = Catalysis kinetic constant was measured for the hydrolysis catalyzed by antibody 15C5
[3] = Michaelis-Menten kinetics was measured for the hydrolysis catalyzed by antibody 15C5

CC(=O)NC1COP(=O)(Oc2ccc([N+](=O)[O-])cc2)OC1 (stereo not drawn)
Kuncat [1]: 2.1 min⁻¹ | k cat [2]: 0.0442 s⁻¹ | Km [3]: 87 µM
